Measured values reported in patent US7354928B2, “Small molecule inhibitors targeted at Bcl-2” (The Regents of the University of Michigan, priority 2001, dated 2008).
Where two headings read alike, the source gives them in different places.

Legend:
[1] = target: T1, GST-fused Bcl-2 protein (Homo sapiens, UniProt P10415); experiment: Bcl-2 fluorescence polarization (FP) competitive binding assay with Flu-Bak-BH3 peptide; conditions: read-out: IC50, inhibition of Bak BH3 peptide binding to Bcl-2, 290 nM tracer, 270 nM Bcl-2 protein
T1 construct: purchased Santa Cruz Biotechnology (Santa Cruz, Calif.)
T1 sequence (P10415 1-205 limits assumed): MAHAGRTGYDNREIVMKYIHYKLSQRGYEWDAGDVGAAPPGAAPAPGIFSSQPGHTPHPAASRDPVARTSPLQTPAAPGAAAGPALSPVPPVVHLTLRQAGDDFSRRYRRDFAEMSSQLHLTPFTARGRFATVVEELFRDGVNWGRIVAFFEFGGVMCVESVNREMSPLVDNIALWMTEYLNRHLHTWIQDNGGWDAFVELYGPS

[2] = system: Bcl-2/Bcl-XL; conditions: reported by Tzung et al.; read-out: IC50, inhibitor of Bcl-2/Bcl-XL; cited from earlier work
[3] = system: HL-60 cells; experiment: Cell viability, trypan blue exclusion, HL-60; type: cell-based; conditions: Homo sapiens; HL-60, trypan blue exclusion, 24 hours; read-out: IC50, inhibition of cell viability
Method: FIG. 3 illustrated the effects of Compound 6 on cell viability. Cells are plated in 24-well plates, incubated with the compound at appropriate concentrations for […]. Cell viability is determined by trypan blue exclusion with hemocytometer. Percent of viable cells, as compared with untreated cells, is plotted against drug concentration.
First, in some embodiments, the trypan blue exclusion method was used to determine the effect of an inhibitor on cell viability in which cells were treated with the inhibitor for 24 hours. Second, in some other embodiments, the MTT assay was used to determine the activity of an inhibitor on cell proliferation where cells were treated for four days. All the 7 active compounds were tested using the HL-60 cell line that expresses the highest level of Bcl-2 protein among all the cancer cell lines examined.
Cells and Reagents. Human breast cell lines (T47D, MDA-231, MDA-453), and human Leukemia cells HL-60 were obtained from the American Type Culture Collection (ATCC). All tumor cell lines were grown and maintained in RPMI 1640 medium containing 10% FBS, except MDA-MB-231, which used Dulbecco's modified Eagle's medium as basal medium. Cultures were maintained in a humidified incubator at 37° C. and 5% CO2.
Cell viability was determined by the trypan blue assay. […] Trypan blue dye was added 24 hours later and the percentage of viable cells were determined.

[4] = Solubility in DMSO or chloroform; type: physicochemical
Method: Compound 5. FABMS 613.2 (M+H)^+. Insoluble in either DMSO or chloroform.
Subsequently ^1H NMR spectra for the five active compounds were performed. The ^1H NMR spectrum for compound 5 is not determined, because it is insoluble in either DMSO or chloroform. The ^1H NMR spectra for compounds 6, 7, 8 and 11 are consistent with their chemical structures.

Nc1nc(-c2ccccc2)nc2c1[n+]([O-])c1ccccc1[n+]2[O-] [Compound 7] gave an IC50 [1] of 1600 nM.
In the case of antimycin A, the IC50 [2] is given as 2000 nM.
COc1ccc2c(c1)CCc1cc(OC)ccc1[N+]([O-])=[N+]2[O-] [Compound 6a, 2,9-Dimethoxy-11,12-dihydrodibenzo [c,g] [1,2] diazocine-5,6-dioxide] gave a melting point of 136 to 138 °C.
In the case of Brc1cccc[n+]1-c1ccc2cc(-[n+]3ccccc3Br)ccc2c1 [Compound 10], the IC50 [3] is reported as ≥ 50000 nM.
In the case of O=C1c2cc(Br)ccc2-c2ccc3c4ccc5c6c(ccc(c7ccc1c2c73)c64)C(=O)c1cc(Br)ccc1-5 [Compound 5], the solubility [4] is reported as “Insoluble” and the solubility ([4]; listed as compound 5) is reported as “insoluble”.
